Reference: ChEMBL document CHEMBL5512665, “A CARM1 Inhibitor Potently Suppresses Breast Cancer Both In Vitro and In Vivo” (J Med Chem, 2024)
Activity calls are given as the source filed them. The calls are words filed in the database; no cut-off is given here.

Assays:
4T1 [1] = assay: Antitumor activity against mouse 4T1 cells implanted in BALB/C mouse assessed as inhibition of tumor weight at 50 mg/kg,ip administrated daily for 14 days; assay type: functional, organism-based; conditions: time 14.0 day
MCF7 [2] = assay: Synergistic antitumor activity against human MCF7 cells xenografted in BALB/C mouse assessed as downregulation of GREB1 gene expression at 25 mg/kg,ip administrated every other day for 15 days in presence of 5 mg/kg tamoxifen oral administration by RT-qPCR analysis; assay type: functional, organism-based; conditions: time 15.0 day
MCF7 [3] = assay: Synergistic antiproliferative activity against human MCF7 cells assessed as inhibition of cell growth at 2.5 uM incubated for 7 days in presence of tamoxifen by celltiter 96 aqueous one solution cell proliferation assay; assay type: functional, cell-based; conditions: time 7.0 day
4T1 [4] = assay: Antitumor activity against mouse 4T1 cells implanted in BALB/C mouse assessed as downregulation of N-Myc gene expression at 50 mg/kg,ip administrated daily for 14 days by RT-qPCR analysis; assay type: functional, organism-based; conditions: time 14.0 day
[5] = Toxicity in BALB/C mouse xenografted with human MDA-MB-231 cells assessed as change in kidney morphology at 50 mg/kg,ip administrated daily for 11 days; assay type: organism-based; conditions: in vivo, 264 h, time 11 day
4T1 [6] = assay: Antitumor activity against mouse 4T1 cells implanted in BALB/C mouse assessed as downregulation of C-Myc gene expression at 50 mg/kg,ip administrated daily for 14 days by RT-qPCR analysis; assay type: functional, organism-based; conditions: time 14.0 day
MCF7 [7] = assay: Synergistic antiproliferative activity against human MCF7 cells assessed as downregulation of CCND1 gene expression at 2.5 uM incubated for 6 hrs in presence of tamoxifen by RT-qPCR analysis; assay type: functional, cell-based
4T1 [8] = assay: Antitumor activity against mouse 4T1 cells implanted in BALB/C mouse assessed as upregulation of IFNalpha gene expression at 50 mg/kg,ip administrated daily for 14 days by RT-qPCR analysis; assay type: functional, organism-based; conditions: time 14.0 day
MCF7 [9] = assay: Antitumor activity against human MCF7 cells xenografted in BALB/C mouse assessed as downregulation of TFF1 gene expression at 25 mg/kg,ip administrated every other day for 29 days by RT-qPCR analysis; assay type: functional, organism-based; conditions: time 29.0 day
4T1 [10] = assay: Potentiation of etoposide induced antitumor activity against mouse 4T1 cells implanted in BALB/C mouse assessed as upregulation of IFNalpha gene expression at 25 mg/kg,ip administrated daily for 12 days in presence of 8 mg/kg etoposide administration by RT-qPCR analysis; assay type: functional, organism-based; conditions: time 12.0 day
MCF7 [11] = assay: Antitumor activity against human MCF7 cells xenografted in BALB/C mouse assessed as reduction of tumor size at 25 mg/kg,ip administrated every other day for 29 days; assay type: functional, organism-based; conditions: time 29.0 day
MCF7 [12] = assay: Antitumor activity against human MCF7 cells xenografted in BALB/C mouse assessed as downregulation of FOXC1 gene expression at 50 mg/kg,ip administrated every other day for 29 days by RT-qPCR analysis; assay type: functional, organism-based; conditions: time 29.0 day
MCF7 [13] = assay: Antitumor activity against human MCF7 cells xenografted in BALB/C mouse assessed as downregulation of N-Myc gene expression at 50 mg/kg,ip administrated every other day for 29 days by RT-qPCR analysis; assay type: functional, organism-based; conditions: time 29.0 day
4T1 [14] = assay: Antitumor activity against mouse 4T1 cells implanted in BALB/C mouse assessed as inhibition of tumor size at 25 mg/kg,ip administrated daily for 14 days; assay type: functional, organism-based; conditions: time 14.0 day
[15] = Toxicity in BALB/C mouse xenografted with human MDA-MB-231 cells assessed as change in lung morphology at 25 mg/kg,ip administrated daily for 11 days; assay type: organism-based; conditions: in vivo, 264 h, time 11 day
MCF7 [16] = assay: Synergistic antiproliferative activity against human MCF7 cells assessed as inhibition of colony formation at 2.5 uM incubated for 10 days in presence of tamoxifen by crystal violet staining based analysis; assay type: functional, cell-based; conditions: time 10.0 day
MCF7 [17] = assay: Potentiation of etoposide induced antiproliferative activity against human MCF7 cells assessed as upregulation of DDX58 gene expression at 2.5 uM in presence of etoposide by RT-qPCR analysis; assay type: functional, cell-based
T47D [18] = assay: Antiproliferative activity against human T47D cells assessed as reduction in cell growth incubated for 7 days by celltiter 96 aqueous one solution cell proliferation assay; conditions: 168 h
T47D [19] = assay: Induction of cell cycle arrest in human T47D cells at 2.5 to 10 uM incubated overnight by propidium iodide staining based flow cytometry; assay type: functional; conditions: dose 2.5-10 µM
4T1 [20] = assay: Antitumor activity against mouse 4T1 cells implanted in BALB/C mouse assessed as upregulation of CCL5 gene expression at 50 mg/kg,ip administrated daily for 14 days by RT-qPCR analysis; assay type: functional, organism-based; conditions: time 14.0 day
MCF7 [21] = assay: Potentiation of etoposide induced antiproliferative activity against human MCF7 cells assessed as upregulation of IFIT1 gene expression at 2.5 uM in presence of etoposide by RT-qPCR analysis; assay type: functional, cell-based
[22] = Toxicity in BALB/C mouse xenografted with human MCF7 cells assessed as change in spleen morphology at 50 mg/kg,ip administrated every other day for 29 days; assay type: organism-based; conditions: in vivo, 696 h, time 29 day
[23] = Toxicity in BALB/C mouse xenografted with human MDA-MB-231 cells assessed as change in kidney morphology at 25 mg/kg,ip administrated daily for 11 days; assay type: organism-based; conditions: in vivo, 264 h, time 11 day
MCF7 [24] = assay: Synergistic antiproliferative activity against human MCF7 cells assessed as inhibition of colony formation at 2.5 uM incubated for 10 days in presence of fulvestrant by crystal violet staining based analysis; assay type: functional, cell-based; conditions: time 10.0 day
[25] = Toxicity in BALB/C mouse xenografted with human MCF7 cells assessed as change in liver morphology at 25 mg/kg,ip administrated every other day for 29 days; assay type: organism-based; conditions: in vivo, 696 h, time 29 day
MCF7 [26] = assay: Antitumor activity against human MCF7 cells xenografted in BALB/C mouse assessed as reduction of tumor weight at 50 mg/kg,ip administrated every other day for 29 days; assay type: functional, organism-based; conditions: time 29.0 day
MCF7 [27] = assay: Synergistic antitumor activity against human MCF7 cells xenografted in BALB/C mouse assessed as downregulation of N-Myc gene expression at 25 mg/kg,ip administrated every other day for 15 days in presence of 5 mg/kg tamoxifen oral administration by RT-qPCR analysis; assay type: functional, organism-based; conditions: time 15.0 day
4T1 [28] = assay: Antitumor activity against mouse 4T1 cells implanted in BALB/C mouse assessed as upregulation of ISG15 gene expression at 50 mg/kg,ip administrated daily for 14 days by RT-qPCR analysis; assay type: functional, organism-based; conditions: time 14.0 day
[29] = Toxicity in BALB/C mouse implanted with mouse 4T1 cells assessed as change in body weight at 50 mg/kg,ip administrated daily for 14 days; assay type: organism-based; conditions: in vivo, 336 h, time 14 day
MCF7 [30] = assay: Synergistic antiproliferative activity against human MCF7 cells assessed as downregulation of N-Myc gene expression at 2.5 uM incubated for 6 hrs in presence of fulvestrant by RT-qPCR analysis; assay type: functional, cell-based
MCF7 [31] = assay: Synergistic antiproliferative activity against human MCF7 cells assessed as downregulation of C-Myc gene expression at 2.5 uM incubated for 6 hrs in presence of fulvestrant by RT-qPCR analysis; assay type: functional, cell-based
MCF7 [32] = assay: Antitumor activity against human MCF7 cells xenografted in BALB/C mouse assessed as reduction of tumor size at 50 mg/kg,ip administrated every other day for 29 days; assay type: functional, organism-based; conditions: time 29.0 day
4T1 [33] = assay: Antitumor activity against mouse 4T1 cells implanted in BALB/C mouse assessed as downregulation of CCND1 gene expression at 25 mg/kg,ip administrated daily for 14 days by RT-qPCR analysis; assay type: functional, organism-based; conditions: time 14.0 day

Cc1ccc(-c2nc(N3CCN(CCN(C)C)CC3)ncc2-c2ccoc2)cc1.Cl.Cl
Activity (4T1 [1]): Active | Activity (MCF7 [2]): Active | Activity (MCF7 [3]): Active | Activity (4T1 [4]): Active | Activity [5]: Non-Toxic | Activity (4T1 [6]): Active | Activity (MCF7 [7]): Active | Activity (4T1 [8]): Active | Activity (MCF7 [9]): Active | Activity (4T1 [10]): Active | Activity (MCF7 [11]): Active | Activity (MCF7 [12]): Active | Activity (MCF7 [13]): Active | Activity (4T1 [14]): Active | Activity [15]: Non-Toxic | Activity (MCF7 [16]): Active | Activity (MCF7 [17]): Active | EC50 (T47D [18]): 4.74 µM | Activity (T47D [19]): Active | Activity (4T1 [20]): Active | Activity (MCF7 [21]): Active | Activity [22]: Non-Toxic | Activity [23]: Non-Toxic | Activity (MCF7 [24]): Active | Activity [25]: Non-Toxic | Activity (MCF7 [26]): Active | Activity (MCF7 [27]): Active | Activity (4T1 [28]): Active | Activity [29]: Non-Toxic | Activity (MCF7 [30]): Active | Activity (MCF7 [31]): Active | Activity (MCF7 [32]): Active | Activity (4T1 [33]): Active
